Consider two molecules from US8210776B2, “Calcification method using calcifying bacteria” (Soletanche Freyssinet, priority 2007, dated 2012).

The subject of test [1] is Sporosarcina pasteurii—CIP 66.21 Pasteur. Briefly: Degree of attachment in sand columns, chicory and/or divalent ion salt added before injection (Example 4). In kind it is cell-based. The note with it: 10 mM Ca(NO3)2 added to the culture medium; 20° C. The protocol: The columns were prepared in accordance with Example 3.
The bacteria (Sporosarcina pasteurii—CIP 66.21 Pasteur) were cultured in a culture medium (1 L of laboratory water) containing 10 g of yeast extract, 3 g of NaCl, 2.4 g of urea, 0.1 g of MgCl2 and 0.0128 g of NiCl2. When the bacteria are at the end of the exponential phase, the following are added to the culture medium: • either a source of calcium (10 mM Ca(NO3)2); • or chicory in a proportion of 4 or 8 g/L; • or a source of calcium (10 mM Ca(NO3)2) and chicory in a proportion of 4 or 8 g/L.
The whole was left to stir for one hour before being injected into the columns.
The injection conditions are identical to those of Example 3. All the experiments were carried out at 20° C.
The cumulative column inlet and outlet OD values are compared and expressed in the form of percentage loss of OD, which represents the degree of attachment of the bacteria in the column. FIG. 5 represents the degrees of attachment of the bacteria stimulated by the addition of chicory, of calcium salt or of both to the culture medium before injection.
The protocol is identical to that of Example 4.1, with the calcium ions (Ca(NO3)2) being replaced with magnesium ions (Mg(NO3)2).

For another test, the system named is Sporosarcina pasteurii. Kind of test: Culture with inulin/chicory replacing part of the yeast extract: attachment to glassware, growth, enzymatic activity. It is filed as cell-based. From the text: In order to determine the amount of inulin necessary in order to act on the synthesis of urease and on the production of EPS in Sporosarcina pasteurii, a part of the nitrogenous carbon source (yeast extract) was replaced with chicory.

Test [2] has as its system S. pasteurii (CIP 66.21 Pasteur). Briefly: Screening for sugars that can be assimilated, API strips (API 20 E and API 50CH). It is filed as cell-based, Sporosarcina pasteurii. The note with it: API strip analysis. From the text:
The first step was to carry out a screening of the various sugars that exist, in order to identify that or those which is (are) assimilable and which stimulate EPS synthesis in Sporosarcina pasteurii, preferably without inhibiting urease synthesis.
For this, two types of API strips were used: API 20 E and API 50CH. These tests are in the form of microtubes containing dehydrated substrates and which are inoculated with a bacterial suspension.

Test [3] has as its system Sporosarcina pasteurri—CIP 66.21 Pasteur. Kind of test: Degree of attachment of bacteria to Fontainebleau sand columns, chicory in the culture medium (Example 3). In kind it is cell-based, Sporosarcina pasteurii. To be noted: media with versus without chicory. The procedure: The chicory used is powdered extract of freeze-dried chicory, derived from the root of Cichorium intibus and sold under the trade name “Chicorée soluble Leroux”. For this, two tests were carried out in parallel on columns:
The columns were made up of a PVC tube 63 mm in diameter and 200 mm in height, positioned between two PVC bases. One centimeter of filter sand was placed at the two ends and the whole of the column was made up with Fontainebleau sand tamped down under water by tapping. The Fontainebleau sand is the NE34-grade sand from SIFRACO. The injections were carried out from top to bottom. […]
Monitoring of the OD at the column outlet makes it possible to know the degree of attachment of the bacteria to the Fontainebleau sand. A calibration OD measurement was carried out beforehand on each of the media from which the bacteria were extracted in order to be free of differences in reading related to the medium itself. […]
Since the column porosity volume is 250 mL, the detection of the first bacteria at the column outlet is carried out after having injected 250 mL of culture medium. The graphic representation of the cumulative OD at the column inlet and at the column outlet makes it possible to readily visualize the degree of attachment of the bacteria to the granular substrate. […] The outlet ODs are also measured every minute. […]

In the case of `O=[N+]([O-])[O-].O=[N+]([O-])[O-].[Ca+2]` [Ca(NO3)2], the “Degree of attachment (%)” value in test [1] worked out at 49.5%.
Turning to Inulin, in the test on Sporosarcina pasteurii, the “adhesion of the bacteria to the laboratory glassware through the production of EPS” value is “demonstrated adhesion” and the “growth of the bacteria” value is given as “more rapid”. The “carbon source that can be assimilated by Sporosarcina pasteurii” value in test [2] was “can be assimilated”. Besides, the “bacterial growth (inlet OD)” value in test [3] is “greater”.
